Laboratory results: article PMC10977726 (PLOS ONE, 2024)

How the values were obtained:
[1] = 100% human serum, 0.2 mM DCP, 37°C, LC-MS, UV 220 nm peak area normalized to 0 h, three independent experiments
[2] = target: T1, human IgG Fc (Homo sapiens, UniProt P01857); test: Phage competition ELISA for epitope mapping (various synthetic DCPs vs phage displaying one DCP); format: binding
T1 construct: Biotin-SP-ChromPure Human IgG, Fc fragment; purchased Jackson Immunoresearch Labs Inc. 009060008

For `CC[C@H](C)[C@@H]1NC(=O)[C@H](CO)NC(=O)[C@H]([C@@H](C)CC)NC(=O)[C@H](CO)NC(=O)[C@H](CO)NC(=O)[C@@H]2CSSC[C@@H]3NC(=O)[C@H](CO)NC(=O)CNC(=O)[C@H]([C@@H](C)O)NC(=O)[C@H](CSSC[C@H](NC(=O)[C@@H](N)CCC(=O)O)C(=O)N[C@@H](CCCCN)C(=O)NCC(=O)N[C@@H](CCCCN)C(=O)NCC(=O)N[C@@H](C)C(=O)N[C@@H](CCCCN)C(=O)N2)NC(=O)[C@H](CSSC[C@@H](C(=O)O)NC(=O)[C@H](CCCCN)NC(=O)CNC(=O)[C@H](CO)NC(=O)[C@H](CCCNC(=N)N)NC3=O)NC(=O)[C@H](Cc2c[nH]cn2)NC(=O)[C@H](C)NC(=O)[C@H](CC(=O)O)NC(=O)[C@H](Cc2c[nH]cn2)NC1=O` [Ig-CON-5], the “loss of peptides after 24 h” value [1] was 40–50%, the “inhibition of interaction between biotinylated hIgG Fc and phage displaying Ig-AMP-1” value ([2]; Fig 4D) was “potently inhibited” and the “inhibition of interaction between human IgG Fc and phage displaying Ig-CON-5” value ([2]; Fig S15) was “potently inhibited”.
